Test results published in ChEMBL document CHEMBL5244230, “Artemisinin-derived hybrids and their anticancer activity” (Eur J Med Chem, 2020).
Values after ≈ are worked out from the molar mass of the structure shown.

Experiments:
HepG2 = test: Antiproliferative activity against human HepG2 cells; assay type: functional, cell-based
MCF7 [1] = test: Anticancer activity against human MCF7 cells; assay type: functional, cell-based
HL-60 [2] = test: Antiproliferative activity against human HL-60 cells; assay type: functional, cell-based
[3] = Cytotoxicity against human HFF cells; assay type: toxicity, cell-based
HeLa [4] = test: Potency index, ratio of artesunate IC50 to test compound IC50 for antiproliferative activity against human HeLA cells assessed as inhibition of cell growth; assay type: functional
HCT-116 [5] = test: Potency index, ratio of artesunate IC50 to test compound IC50 for antiproliferative activity against human HCT-116 cells assessed as inhibition of cell growth; assay type: functional
[6] = Potency index, ratio of artesunate IC50 to test compound IC50 for antiproliferative activity against human 1205Lu cells assessed as inhibition of cell growth; assay type: functional
[7] = Antiproliferative activity against human 1205Lu cells; assay type: functional, cell-based
HCT-116 [8] = test: Antiproliferative activity against human HCT-116 cells; assay type: functional, cell-based
HeLa [9] = test: Antiproliferative activity against human HeLa cells; assay type: functional, cell-based
TK-10 [10] = test: Anticancer activity against human TK-10 cells assessed as total growth inhibition; assay type: functional
[11] = Cytotoxicity against CHO cells; assay type: toxicity, cell-based, Cricetulus griseus; details: Chinese hamster
UACC-62 [12] = test: Anticancer activity against human UACC-62 cells; assay type: functional, cell-based
TK-10 [13] = test: Anticancer activity against human TK-10 cells; assay type: functional, cell-based
[14] = Blood clearance in rat at 100 mg/kg, po; assay type: ADME, organism-based
UACC-62 [15] = test: Anticancer activity against human UACC-62 cells assessed as total growth inhibition; assay type: functional
MCF7 [16] = test: Anticancer activity against human MCF7 cells assessed as total growth inhibition; assay type: functional
Ca9-22 = test: Cytotoxicity against human Ca9-22 cells; assay type: functional, cell-based
B16 = test: Cytotoxicity against mouse B16 cells assessed as cell growth inhibition measured after 48 hrs by MTT assay; assay type: functional
HeLa [17] = test: Cytotoxicity against human HeLa cells assessed as cell growth inhibition measured after 48 hrs by MTT assay; assay type: functional
[18] = Cytotoxicity against human U87 cells assessed as cell growth inhibition measured after 48 hrs by MTT assay; assay type: functional, U-87MG ATCC; details: U-87 MG
HSC-2 = test: Cytotoxicity against human HSC-2 cells; assay type: functional, cell-based
A 172 = test: Cytotoxicity against human A-172 cells assessed as cell growth inhibition measured after 48 hrs by MTT assay; assay type: functional
SiHa = test: Cytotoxicity against human SiHa cells assessed as cell growth inhibition measured after 48 hrs by MTT assay; assay type: functional
DLD-1 = test: Cytotoxicity against human DLD-1 cells assessed as cell growth inhibition measured after 48 hrs by MTT assay; assay type: functional
[19] = target: c-Jun N-terminal kinase, JNK (Homo sapiens, UniProt P45983+P53779+P45984); test: Inhibition of N-terminal c-Jun phosphorylation in human HeLa cells; assay type: cell-based
HeLa [20] = test: Cytotoxicity against human HeLa cells assessed as cell viability incubated for 48 hrs by MTT assay; assay type: functional, cell-based
Leukemia cell = test: Antiproliferative activity against human Leukemia cell assessed as reduction in cell viability; assay type: functional, cell-based
HeLa [21] = test: Antiproliferative activity against human HeLa cells assessed as reduction in cell viability; assay type: functional, cell-based
HL-60 [22] = test: Antiproliferative activity against human HL-60 cells assessed as reduction in cell viability measured after 72 hrs; assay type: functional, cell-based; details: HL-60, 72 h
P388 [23] = test: Potency index, ratio of test compound IC50 to dihydroartemisinin IC50 for antiproliferative activity against mouse P388 cells assessed as reduction in cell viability measured after 72 hrs; assay type: functional
[24] = Antiproliferative activity against mouse P388 cells assessed as reduction in cell viability measured after 72 hrs; assay type: functional, cell-based; details: 72 h
HL-60 [25] = test: Potency index, ratio of test compound IC50 to dihydroartemisinin IC50 for antiproliferative activity against human HL-60 cells assessed as reduction in cell viability measured after 72 hrs; assay type: functional
MCF7 [26] = test: Antiproliferative activity against doxorubicin resistant human MCF7 cells; assay type: functional, cell-based
P388/ADR [27] = test: Potency index, ratio of test compound IC50 to dihydroartemisinin IC50 for antiproliferative activity against mouse P388/ADR cells assessed as reduction in cell viability measured after 72 hrs; assay type: functional
P388/ADR [28] = test: Antiproliferative activity against mouse P388/ADR cells assessed as reduction in cell viability measured after 72 hrs; assay type: functional, cell-based; details: 72 h
[29] = Potency index, ratio of dihydroartemisinin IC50 to test compound IC50 for anticancer activity against mouse […] cells; assay type: functional
[30] = Potency index, ratio of dihydroartemisinin IC50 to test compound IC50 for anticancer activity against human Lu1 cells; assay type: functional
MCF7 [31] = test: Anticancer activity against human MCF7 cells assessed as inhibition of cell growth; assay type: functional, cell-based
P388 [32] = test: Anticancer activity against mouse P388 cells; assay type: functional, cell-based
HL-60 [33] = test: Anticancer activity against human HL-60 cells; assay type: functional, cell-based
MCF7 [34] = test: Potency index, ratio of dihydroartemisinin IC50 to test compound IC50 for anticancer activity against human MCF7 cells; assay type: functional
HL-60 [35] = test: Potency index, ratio of dihydroartemisinin IC50 to test compound IC50 for anticancer activity against human HL-60 cells; assay type: functional
[36] = Anticancer activity against human Lu1 cells; assay type: functional, cell-based

## C[C@H]1[C@@H](NC(=O)CCC(=O)NO)O[C@@H]2O[C@@]3(C)CC[C@H]4[C@H](C)CC[C@@H]1[C@@]24OO3
HepG2
  IC50: 1.28 µg/mL (≈ 3.21 µM)
MCF7 [1]
  IC50: 1.28 µg/mL
HL-60 [2]
  IC50: 1.28 µg/mL (≈ 3.21 µM)

## C[C@H]1[C@@H](CC(C[C@H]2O[C@@H]3O[C@@]4(C)CC[C@H]5[C@H](C)CC[C@@H]([C@H]2C)[C@@]35OO4)CS(=O)(=O)c2ccc(CO)cc2)O[C@@H]2O[C@@]3(C)CC[C@H]4[C@H](C)CC[C@@H]1[C@@]24OO3 (stereo not given in full)
[3]
  IC50: 57.5 µM
HeLa [4]
  Ratio IC50: 12.6
HCT-116 [5]
  Ratio IC50: 12.6
[6]
  Ratio IC50: 12.6
[7]
  IC50: 0.07 µM
HCT-116 [8]
  IC50: 0.07 µM
HeLa [9]
  IC50: 0.07 µM

## C[C@H]1[C@@H](OCC[N+]2(CCO[C@H]3O[C@@H]4O[C@@]5(C)CC[C@H]6[C@H](C)CC[C@@H]([C@H]3C)[C@@]46OO5)CCN(CCNc3ccnc4cc(Cl)ccc34)CC2)O[C@@H]2O[C@@]3(C)CC[C@H]4[C@H](C)CC[C@@H]1[C@@]24OO3.[Br-]
TK-10 [10]
  TGI: 2.21 µM
[11]
  IC50: 74.8 µM
UACC-62 [12]
  GI50: 0.03 µM
MCF7 [1]
  GI50: 0.03 µM
TK-10 [13]
  GI50: 0.03 µM
[14]
  CL/F: 287 L/h/kg
UACC-62 [15]
  TGI: 2.21 µM
MCF7 [16]
  TGI: 2.21 µM

## CC(=O)O[C@H]1C(=O)[C@@]2(C)[C@H]([C@H](OC(=O)c3ccccc3)[C@]3(O)C[C@H](OC(=O)[C@H](O)[C@@H](NC(=O)c4ccccc4)c4ccccc4)C(C)=C1C3(C)C)[C@]1(OC(C)=O)CO[C@@H]1C[C@@H]2O [PACLITAXEL]
MCF7 [1]
  IC50: > 40 µM
Ca9-22
  IC50: > 100 µM
B16
  GI50: 0.01 µM
HeLa [17]
  GI50: 0.01 µM
[18]
  GI50: 0.01 µM
HSC-2
  IC50: > 100 µM
A 172
  GI50: 0.01 µM
SiHa
  GI50: 0.01 µM
DLD-1
  GI50: 0.01 µM

## C[C@H]1[C@@H](OCCN(CCCNc2ccnc3cc(Cl)ccc23)CCO[C@H]2O[C@@H]3O[C@@]4(C)CC[C@H]5[C@H](C)CC[C@@H]([C@H]2C)[C@@]35OO4)O[C@@H]2O[C@@]3(C)CC[C@H]4[C@H](C)CC[C@@H]1[C@@]24OO3
TK-10 [10]
  TGI: 2.21 µM
[11]
  IC50: 0.68 µM
UACC-62 [12]
  GI50: 0.03 µM
MCF7 [1]
  GI50: 0.03 µM
TK-10 [13]
  GI50: 0.03 µM
[14]
  CL/F: 184 L/h/kg
UACC-62 [15]
  TGI: 2.21 µM
MCF7 [16]
  TGI: 2.21 µM

## Cc1cc(N/N=C/c2ccc(O[C@H]3O[C@@H]4O[C@@]5(C)CC[C@H]6[C@H](C)CC[C@@H]([C@H]3C)[C@@]46OO5)cc2)c2cc(Cl)ccc2n1
MCF7 [1]
  IC50: 15 µM
[19]
  IC50: 7.5 µM

## C[C@H]1[C@@H](NC(=O)CCCCCCC(=O)NO)O[C@@H]2O[C@@]3(C)CC[C@H]4[C@H](C)CC[C@@H]1[C@@]24OO3 (racemic)
HepG2
  IC50: 1.28 µg/mL (≈ 2.82 µM)
MCF7 [1]
  IC50: 1.28 µg/mL
HL-60 [2]
  IC50: 1.28 µg/mL (≈ 2.82 µM)

## C[C@H]1[C@H](OC(=O)CCC(=O)O)O[C@@H]2O[C@@]3(C)CC[C@H]4[C@H](C)CC[C@@H]1[C@@]24OO3 [ARTESUNATE]
HeLa [20]
  IC50: 0.5 µM
Leukemia cell
  IC50: 6.89 µM
[7]
  IC50: 7.1 µM
HeLa [21]
  IC50: 11.3 µM

## C[C@H]1[C@@H](Oc2ccc(CCn3ccnn3)cc2)O[C@@H]2O[C@@]3(C)CC[C@H]4[C@H](C)CC[C@@H]1[C@@]24OO3
HL-60 [22]
  IC50: 0.065 µM
P388 [23]
  Ratio IC50: 4.6
[24]
  IC50: 0.047 µM
HL-60 [25]
  Ratio IC50: 4.6
MCF7 [26]
  IC50: 0.047 µM
P388/ADR [27]
  Ratio IC50: 4.6
P388/ADR [28]
  IC50: 2.89 µM

## CC1CCNC(C(=O)c2ccc(-n3cc(CO[C@H]4O[C@@H]5O[C@@]6(C)CC[C@H]7[C@H](C)CC[C@@H]([C@H]4C)[C@@]57OO6)nn3)cc2)C1 (stereo not given in full)
[29]
  Ratio IC50: 10.5
MCF7 [1]
  IC50: 2.5 µM
[30]
  Ratio IC50: 10.5
MCF7 [31]
  IC50: 2.5 µM
P388 [32]
  IC50: 2.5 µM
HL-60 [33]
  IC50: 2.5 µM
MCF7 [34]
  Ratio IC50: 10.5
HL-60 [35]
  Ratio IC50: 10.5
[36]
  IC50: 2.5 µM
